Results from patent US20250289786A1, “CHLORINATED MONOCARBONYL CURCUMIN COMPOUNDS, PREPARATION METHOD, AND APPLICATION” (Southwest Medical University, priority 2024, published 2025).

Legend:
[1] = Solubility detection of CAK01-CAK07; type: physicochemical
Text: The chlorinated monocarbonyl curcumin compounds CAK01-CAK07 prepared under the conditions of Example 1 were taken for nuclear magnetic resonance, mass spectrometry, solubility, and melting point detection.

[2] = ABTS free radical capture ability; type: biochemical; settings: 20 min reaction in the dark
Procedure: 66.2 mg of K2S2O8 was weighed and placed in a 100 mL volumetric flask, pure water was added to the scale line to prepare a 2.45 mmol/L K2S2O8 solution. 192 mg of ABTS was accurately weighed and placed in a 25 mL volumetric flask, and the newly prepared K2S2O8 solution was added for dissolving and constant volume dilution, after standing in the dark for 20 h, the ABTS mother liquor was obtained. Before use, to make the measured value more accurate, the ABTS mother liquor needs to be diluted with a PBS solution of pH7.4 until the absorbance range of the ABTS working solution at 734 nm is 0.70±0.02.
Drug concentration screening: To avoid the complete removal of free radicals by excessive drug concentration and the inability to compare the ability to capture ABTS free radicals, a preliminary screening of drug concentration is required before the formal test. A gradient concentration of compound solution was prepared, and a gradient concentration of Vit C solution was prepared as a positive control. A total of 450 μL of ABTS working solution was accurately absorbed into a 1.5 mL EP tube, and 150 μL of the gradient solution of each group of drugs was added, after 20 min of reaction in the dark, 150 μL of the reaction solution was taken and placed in a 96-well plate, the absorbance was measured by a microplate reader. Three duplicate wells were set for each concentration, and the drug concentration with absorbance between 0.2-0.7 was selected for subsequent determination.
Determination operation: After the drug concentration screening was completed, 7 concentration gradient groups were set within this concentration range. A total of 450 μL of ABTS working solution was accurately absorbed into a 1.5 mL EP tube, and 150 μL of the gradient solution of each group of drugs was added. After 20 min of reaction in the dark, 150 μL of the reaction solution was taken and placed in a 96-well plate, the absorbance was measured by a microplate reader. Three duplicate wells were set for each concentration, the positive control group was a gradient solution of Vit C, and the blank control group was an equal volume of anhydrous ethanol.

PC12 cells [3] = assay: MTT toxicity (safety evaluation) on PC12 nerve cells; type: cell-based; settings: for cytotoxicity to PC12 cells: 3.75-60 μM, 24 h and 48 h, in words
Procedure: The toxicity of each drug to PC12 cells was determined by MTT assay. The principle of the MTT colorimetric method: there is succinate dehydrogenase in the mitochondria of living cells, which can make exogenous MTT become blue-purple crystal formazan insoluble in water, this phenomenon cannot be observed in dead cells. The blue-purple crystal formazan can be dissolved by DMSO, and the absorbance value is measured by a microplate reader at a wavelength of 490 nm, which in turn reflects the number of living cells. […] The operation method is as follows:
The cells were resuscitated with DMEM high glucose medium containing 10% fetal bovine serum and cultured in a 5% CO2 cell incubator at 37° C., when the cells grew to the logarithmic growth phase, they were inoculated into a 96-well plate and cultured for 24 hours, each well was added with 100 μL of each compound solution at the corresponding gradient concentration (60, 30, 15, 7.5, 3.75 μM), after incubation in the incubator for 24 h or 48 h, 20 μL of MTT was added to continue incubation for 4 h, the supernatant was discarded and 150 μL of DMSO was added to dissolve the blue-purple crystals, after shaking for 10 min, the cell viability was detected by a microplate reader, and classified according to the cytotoxicity standard. The relevant calculation formula is as follows: […]

PC12 cells [4] = assay: Inhibition of H2O2-induced oxidative damage in PC12 cells; type: cell-based, rat; settings: for effect on survival of H2O2-damaged PC12 cells: 24 h, in words
Procedure: After 24 hours of incubation in the incubator, the relative proliferation rates of the cells were calculated according to the method under Section 2.1.

PC12 cells [5] = assay: Inhibition of corticosterone (CORT)-induced PC12 cell damage; type: cell-based, rat; settings: 24 h; for effect on viability of CORT-damaged PC12 cells: 3.75-60 μM drug with 514.6 μM CORT, in words

Row | Structure (SMILES) | solubility [1] | IC50 values of ABTS captured [2] | Rank (cytotoxicity standard) 24 h (PC12 cells [3]; PC12, 3.75 μM) | Relative growth rate (%) 24 h (PC12 cells [3]; PC12, 3.75 μM) | Rank (cytotoxicity standard) 48 h (PC12 cells [3]; PC12, 3.75 μM) | Relative growth rate (%) 48 h (PC12 cells [3]; PC12, 3.75 μM) | Rank (cytotoxicity standard) 24 h (PC12 cells [3]; PC12, 7.5 μM) | Relative growth rate (%) 24 h (PC12 cells [3]; PC12, 7.5 μM) | Rank (cytotoxicity standard) 48 h (PC12 cells [3]; PC12, 7.5 μM) | Relative growth rate (%) 48 h (PC12 cells [3]; PC12, 7.5 μM) | Rank (cytotoxicity standard) 24 h (PC12 cells [3]; PC12, 15 μM) | Relative growth rate (%) 24 h (PC12 cells [3]; PC12, 15 μM) | Rank (cytotoxicity standard) 48 h (PC12 cells [3]; PC12, 15 μM) | Relative growth rate (%) 48 h (PC12 cells [3]; PC12, 15 μM) | Rank (cytotoxicity standard) 24 h (PC12 cells [3]; PC12, 30 μM) | Relative growth rate (%) 24 h (PC12 cells [3]; PC12, 30 μM) | Rank (cytotoxicity standard) 48 h (PC12 cells [3]; PC12, 30 μM) | Relative growth rate (%) 48 h (PC12 cells [3]; PC12, 30 μM) | Rank (cytotoxicity standard) 24 h (PC12 cells [3]; PC12, 60 μM) | Relative growth rate (%) 24 h (PC12 cells [3]; PC12, 60 μM) | further results
1 | O=C1/C(=C/c2cc(Cl)c(O)c(Cl)c2)CNC/C1=C\c1cc(Cl)c(O)c(Cl)c1 [CAK01, 3,5-bis ((E)-3,5-dichloro-4-hydroxybenzylidene) piperidin-4-one] | 0.17 mg/100 g | 79.62 µg/mL | 0 | 104.22 ± 1.99% | 1 | 99.22 ± 1.65% | 0 | 101.17 ± 2.97% | 0 | 100.73 ± 3.19% | 1 | 99.46 ± 2.16% | 1 | 99.33 ± 1.79% | 0 | 101.62 ± 3.23% | 0 | 100.73 ± 2.88% | 0 | 104.04 ± 1.43% | cytotoxicity to PC12 cells (PC12 cells [3]): no significant cytotoxicity; Rank (cytotoxicity standard) 48 h (PC12 cells [3]; PC12, 60 μM): 1; Relative growth rate (%) 48 h (PC12 cells [3]; PC12, 60 μM): 85.41 ± 3.45%; effect on survival of H2O2-damaged PC12 cells (PC12 cells [4]; drug concentration below 30 μM): increased the survival rate of cells in a concentration-dependent manner; effect on viability of CORT-damaged PC12 cells (PC12 cells [5]): did not show the potential to restore cell viability
2 | CN1C/C(=C\c2cc(Cl)c(O)c(Cl)c2)C(=O)/C(=C/c2cc(Cl)c(O)c(Cl)c2)C1 [CAK02, 3,5-bis ((E)-3,5-dichloro-4-hydroxybenzylidene)-1-methylpiperidin-4-one] | 0.09 mg/100 g | 223.7 µg/mL | 0 | 102.93 ± 1.13% | 1 | 98.35 ± 1.84% | 1 | 99.40 ± 4.11% | 0 | 100.22 ± 3.73% | 1 | 95.08 ± 10.06% | 1 | 95.22 ± 1.86% | 1 | 99.48 ± 1.91% | 1 | 97.59 ± 8.36% | 1 | 88.18 ± 0.93% | cytotoxicity to PC12 cells (PC12 cells [3]): no significant cytotoxicity; Rank (cytotoxicity standard) 48 h (PC12 cells [3]; PC12, 60 μM): 1; Relative growth rate (%) 48 h (PC12 cells [3]; PC12, 60 μM): 98.48 ± 2.00%; effect on survival of H2O2-damaged PC12 cells (PC12 cells [4]; drug concentration below 30 μM): increased the survival rate of cells in a concentration-dependent manner; effect on viability of CORT-damaged PC12 cells (PC12 cells [5]): did not show the potential to restore cell viability
3 | CCN1C/C(=C\c2cc(Cl)c(O)c(Cl)c2)C(=O)/C(=C/c2cc(Cl)c(O)c(Cl)c2)C1 [CAK03, 3,5-bis ((E)-3,5-dichloro-4-hydroxybenzylidene)-1-ethylpiperidin-4-one] | 0.08 mg/100 g | 46.56 µg/mL | 1 | 96.25 ± 0.78% | 1 | 98.96 ± 1.23% | 1 | 87.65 ± 5.86% | 1 | 94.59 ± 1.02% | 1 | 88.25 ± 5.62% | 1 | 89.84 ± 0.82% | 1 | 82.96 ± 2.83% | 1 | 95.25 ± 9.43% | 1 | 77.51 ± 4.22% | Rank (cytotoxicity standard) 48 h (PC12 cells [3]; PC12, 60 μM): 3; Relative growth rate (%) 48 h (PC12 cells [3]; PC12, 60 μM): 30.33±6.54%; effect on survival of H2O2-damaged PC12 cells (PC12 cells [4]; drug concentration below 30 μM): increased the survival rate of cells in a concentration-dependent manner; relative cell proliferation rate (PC12 cells [5]; 15 μM drug with 514.6 μM CORT): 59.15±0.51%; relative cell proliferation rate (PC12 cells [5]; 60 μM drug with 514.6 μM CORT): 59.92±1.53%
4 | CC(C)N1C/C(=C\c2cc(Cl)c(O)c(Cl)c2)C(=O)/C(=C/c2cc(Cl)c(O)c(Cl)c2)C1 [CAK04, 3,5-bis ((E)-3,5-dichloro-4-hydroxybenzylidene)-1-isopropylpiperidin-4-one] | 0.04 mg/100 g | 57.78 µg/mL | 1 | 98.54 ± 5.42% | 0 | 100.97 ± 3.25% | 1 | 99.95 ± 5.76% | 0 | 100.45 ± 2.96% | 1 | 99.06 ± 5.73% | 1 | 99.75 ± 1.57% | 1 | 99.66 ± 2.34% | 1 | 98.02 ± 3.00% | 0 | 101.64 ± 3.95% | cytotoxicity to PC12 cells (PC12 cells [3]): no significant cytotoxicity; Rank (cytotoxicity standard) 48 h (PC12 cells [3]; PC12, 60 μM): 0; Relative growth rate (%) 48 h (PC12 cells [3]; PC12, 60 μM): 100.17 ± 2.92%; relative proliferation rate of cells (PC12 cells [4]; 30 μM drug with 585.8 μM H2O2, 24 h): 52.12±0.88%; effect on survival of H2O2-damaged PC12 cells (PC12 cells [4]; drug concentration below 30 μM): increased the survival rate of cells in a concentration-dependent manner; effect on viability of CORT-damaged PC12 cells (PC12 cells [5]): did not show the potential to restore cell viability
5 | COc1cc(/C=C2\CN(C(C)C)C/C(=C\c3cc(Cl)c(O)c(OC)c3)C2=O)cc(Cl)c1O [CAK05, 3,5-bis ((E)-3-chloro-4-hydroxy-5-methoxybenzylidene)-1-isopropylpiperidin-4-one] | 0.14 mg/100 g | 369.1 µg/mL | 1 | 89.59 ± 2.85% | 2 | 61.38±0.91% | 2 | 68.98±2.27% | 2 | 51.45 ± 1.44% | 2 | 62.32 ± 3.54% | 3 | 22.26 ± 1.14% | 2 | 56.50 ± 1.99% | 4 | 15.43 ± 0.32% | 3 | 41.84 ± 0.40% | cytotoxicity to PC12 cells (PC12 cells [3]): a great influence on the activity of PC12 cells; Rank (cytotoxicity standard) 48 h (PC12 cells [3]; PC12, 60 μM): 4; Relative growth rate (%) 48 h (PC12 cells [3]; PC12, 60 μM): 11.06 ± 0.87%; effect on survival of H2O2-damaged PC12 cells (PC12 cells [4]; 3.75-60 μM drug): failed to show the potential to restore cell viability; effect on viability of CORT-damaged PC12 cells (PC12 cells [5]): did not show the potential to restore cell viability
6 | O=C1O[C@H]([C@@H](O)CO)C(O)=C1O [Vit C, ascorbic acid, reference compound] |  | 54.54 µg/mL |  |  |  |  |  |  |  |  |  |  |  |  |  |  |  |  |  |  | 
